Source: US20110027785A1, “METHOD FOR DETERMINING SUSCEPTIBILITY OF INDIVIDUALS TO POLYPHENOLS” (CONOPCO, INC., D/B/A UNILEVER, priority 2009, published 2011)

System: male participants
Test: Diastolic blood pressure pre- and post-treatment, 8 week EGCG study stratified by COMT genotype
Format: in vivo, human
Details: 800 mg/day EGCG, 8 weeks
Text: This was a double blind, single centre, randomised and parallel design study. A total of 95 male participants were recruited on to the study using the following criteria: • healthy (no significant history or current disease or medication) • non-diabetic • non-smokers • aged 40-65 years • Body Mass Index >28 <38 The study population were randomly assigned to one of two treatment groups. Each group was balanced for age and insulin resistance (homeostatic model of insulin resistance HOMAir). HOMAir was measured from mean fasting plasma glucose values as described by Mathews et al, Diabetologia (1985), 28, 412-419. 75 subjects consented to genotype analysis for the COMT polymorphism rs4680. The active treatment was 800 mg/day EGCG and the placebo treatment 800 mg/day lactose. Treatments were administered twice daily with food for 8 weeks, one 400 mg capsule in the morning and one 400 mg capsule in the evening. The diastolic blood pressure was measured pre- and post-treatment. During the three days before pre- and post-treatment study visits, participants refrained from exercise, alcohol and ate their normal diet which consisted of at least 150 g carbohydrates. Blood pressure was measured manually on the upper arm using a sphygmomanometer (UA-787, A and D Medical). Three measurements were taken at 5 minute intervals whilst participants rested in a semi-recumbent position and with participants rested for at least 5 minutes before the first measurement. All three measurements were used to derive mean blood pressure values. Non-smoking status and alcohol abstinence were verified using Micro CO meter (Micro Medical Ltd) and AlcoMate Pro (AK Solutions) monitors, respectively. All equipment was calibrated before use. The data was stratified based on the derived COMT genotype and analysed. For each treatment group and genotype subset the mean and standard deviation for the change from baseline to endpoint was calculated. Paired t-tests were used to assess whether the change from baseline was statistically significant (p<0.05).

## O=C(O[C@@H]1Cc2c(O)cc(O)cc2O[C@@H]1c1cc(O)c(O)c(O)c1)c1cc(O)c(O)c(O)c1 [EGCG, epigallocatechin gallate]
AA (low activity) COMT genotype, paired t-test p=0.036
  diastolic blood pressure, change compared to baseline: Statistically significant reductions
AA COMT genotype, p=0.044
  LSMean change from baseline in diastolic blood pressure, controlled for baseline: statistically significant reduction
AG (intermediate activity) COMT genotype, paired t-test p=0.006
  diastolic blood pressure, change compared to baseline: Statistically significant reductions
AG COMT genotype, p=0.012
  LSMean change from baseline in diastolic blood pressure, controlled for baseline: statistically significant reduction
GG (high activity) COMT genotype, paired t-test p=0.647
  diastolic blood pressure, change compared to baseline: not statistically significant
GG COMT genotype
  LSMean change from baseline in diastolic blood pressure, controlled for baseline: not the GG group
